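Values below derive from 48-hour exposures of cells grown in 96-well plates, with endpoints linearly interpolated between the two concentrations bracketing the appropriate inhibition level. GI50 marks 50% less growth.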 The source made the active and inactive calls. Rule as the data show it: active = GI50 up to about 1.1 µM and inactive = higher.
Columns and labels:
Assay in all cases: NCI-60 cell line screen, 48 h
SK-MEL-28 = tested on: SK-MEL-28
SNB-19 = tested on: SNB-19
UO-31 = tested on: UO-31
K562 = tested on: K562
OVCAR-5 = tested on: OVCAR-5
HOP-62 = tested on: HOP-62
SF-295 = tested on: SF-295
M14 = tested on: M14
SR = tested on: SR
MDA-MB-435 = tested on: MDA-MB-435
OVCAR-8 = tested on: OVCAR-8
U-251 = tested on: U-251
OVCAR-3 = tested on: OVCAR-3
CCRF-CEM = tested on: CCRF-CEM
HT-29 = tested on: HT-29
RXF 393 = tested on: RXF 393
HCC 2998 = tested on: HCC 2998
UACC-62 = tested on: UACC-62
SK-OV-3 = tested on: SK-OV-3

Measured: GI50

CC(=O)Nc1nnc(S(C)(=O)=O)s1
inactive: SK-MEL-28 > 100 µM | SNB-19 > 100 µM | UO-31 > 100 µM | K562 > 100 µM | OVCAR-5 > 100 µM | HOP-62 > 100 µM | SF-295 > 100 µM | M14 > 100 µM | SR > 100 µM | MDA-MB-435 > 100 µM | OVCAR-8 > 100 µM | U-251 > 100 µM | OVCAR-3 > 100 µM | CCRF-CEM > 100 µM | HT-29 > 100 µM | RXF 393 > 100 µM

NC(CC(=O)OCc1ccccc1)C(=O)OCc1ccccc1 (centres undefined)
inactive: SK-MEL-28 > 100 µM | SNB-19 > 100 µM | UO-31 69.5 µM | HCC 2998 33.2 µM | OVCAR-5 > 100 µM | HOP-62 > 100 µM | SF-295 > 100 µM | M14 > 100 µM | SR > 100 µM | MDA-MB-435 > 100 µM | OVCAR-8 > 100 µM | UACC-62 > 100 µM | OVCAR-3 > 100 µM | CCRF-CEM > 100 µM

O=C1CCCCC1S(=O)(=O)c1ccccc1 (centres undefined)
inactive: SK-MEL-28 > 100 µM | SNB-19 > 100 µM | UO-31 > 100 µM | HCC 2998 > 100 µM | K562 > 100 µM | OVCAR-5 > 100 µM | HOP-62 > 100 µM | SF-295 > 100 µM | M14 > 100 µM | SR > 100 µM | OVCAR-8 > 100 µM | UACC-62 > 100 µM | U-251 > 100 µM | OVCAR-3 > 100 µM | CCRF-CEM > 100 µM | HT-29 > 100 µM | RXF 393 > 100 µM | SK-OV-3 > 100 µM

C/C(=N\N=C(N)N)c1sc(-c2nc(C)c(/C(C)=N/N=C(N)N)s2)nc1C
inactive: SK-MEL-28 > 100 µM | SNB-19 > 100 µM | UO-31 > 91 µM | HCC 2998 > 100 µM | K562 > 67.8 µM | OVCAR-5 > 100 µM | HOP-62 > 100 µM | SF-295 > 100 µM | M14 > 100 µM | SR > 45.6 µM | OVCAR-8 > 100 µM | UACC-62 > 100 µM | U-251 > 95.3 µM | OVCAR-3 > 85.5 µM | CCRF-CEM > 60.7 µM | HT-29 > 66.8 µM | RXF 393 > 45.4 µM | SK-OV-3 > 100 µM

CCCCCCCCCCCCCCCCOCC(CN(C)CCN(C)C)OCCCCCCCCCCCCCCCC (centres undefined)
inactive: SK-MEL-28 > 100 µM | SNB-19 > 100 µM | UO-31 > 100 µM | HCC 2998 > 100 µM | K562 > 100 µM | OVCAR-5 > 100 µM | HOP-62 > 100 µM | SF-295 > 100 µM | M14 > 100 µM | SR > 100 µM | OVCAR-8 > 100 µM | UACC-62 > 100 µM | U-251 > 100 µM | OVCAR-3 > 100 µM | CCRF-CEM > 100 µM | HT-29 > 100 µM | RXF 393 > 100 µM | SK-OV-3 > 100 µM
